Columns and labels:
HeLa cell = assay: Quantitative determination of IP6 in cell (LC/MS of IP6 methyl ester); type: cell-based; settings: HeLa cells, 10 μM, 30 minutes
Procedure: In this example, incorporation of Pro-IP6 into a HeLa cell was quantitatively determined.
HeLa cells (5×10^5 cells/well, culture fluid: 1 mL) were seeded in a 3.5 cm dish to be cultured for 24 hours. Thereafter, DMSO (1%, Fujifilm Wako Pure Chemical Corporation), an aqueous solution (1%) of IP6 (final concentration: 10 μM, Sigma Aldrich), or a DMSO solution (1%) of Pro-IP6 (final concentration: 10 μM) synthesized in Example 1 was added thereto, and the resultant was cultured for another 30 minutes. HeLa cells were cultured with neither IP6 nor Pro-IP6 added, followed by adding the same amount of DMSO thereto, and the resultant was used as a negative control.
Thereafter, the resultant was washed with 1× PBS (−) once, and the resultant cells were scraped with a cell scraper, transferred to a 1.5 mL tube, and washed with 1× PBS (−) three times. To the thus obtained precipitate, 350 μl of MeOH (Fujifilm Wako Pure Chemical Corporation) and 1% NP-40 (Nacalai Tesque, Inc.) were added, followed by sonication (10 minutes). After equilibrating a column (Oasis WAX 1cc, Waters) with MeOH (1 mL) and H2O (1 mL), a disrupted cell extract was added thereto. Thereafter, the column was washed with 50% MeOH (1 mL), and eluted with 50% MeOH (200 μL×2) containing 2 mol/L of HCl (Fujifilm Wako Pure Chemical Corporation). The thus obtained eluate was concentrated, and dissolved in MeOH (50 μL), and trimethylsilyldiazomethane (200 μl, Tokyo Chemical Industry Co., Ltd.) was added thereto, followed by stirring at 50° C. for 1 hour under argon atmosphere. The reaction was stopped by adding H2O (100 μL). Through a reaction of trimethylsilyidiazomethane with IP6, IP6 methyl ester is obtained.
The thus obtained sample (IP6 methyl ester) was measured by LC/MS [column: MastroC18 2.1 mm×100 mm, […] (Shimadzu GLC Ltd.), mobile phase: 0.1% formic acid solution (Fujifilm Wako Pure Chemical Corporation), acetonitrile (Fujifilm Wako Pure Chemical Corporation)] [LC:LC-20AD (Shimadzu), MS: amaZon speed (BRUKER)].

[1] = tested on: MT-2 cell (HTLV transformed human T cell leukemia cell); assay: MTT assay, MT-2 cell; type: cell-based; settings: 1 μM or 10 μM, 8 hours or 24 hours
Procedure: In this example, the cytotoxic effect of Pro-IP6 on four types of blood cancer cell lines and a cell derived from a healthy person was examined by MTT assay. […] It is possible to check viability of cultured cells by MTT assay. Cancer cell lines (1.74×10^4 cells/well, culture fluid: 200 μL) • MT-2 cell (HTLV transformed human T cell leukemia cell) • […] cell (human T-lymphoblastoid cell) • Jurkat cell (human T-lymphocyte cell) • K562 cell (chronic myelogenous leukemia cell) Each of the above-described types of cells was seeded in a 96-well plate, and was cultured for 8 hours for each of the various cancer cell lines and for 16 hours for PMBC. Thereafter, DMSO (1%, Fujifilm Wako Pure Chemical Corporation), an aqueous solution (1%) of IP6 (final concentration: 1 μM or 10 μM, Sigma Aldrich), or a DMSO solution (1%) of Pro-IP6 (final concentration: 1 μM or 10 μM) was added thereto, followed by culturing for 8 hours or 24 hours. An MTT reagent (Dojindo Laboratories, 1.1 mg/mL) was added in an amount of 50 μL per well, and the resultant was cultured for another 4 hours. The thus precipitated crystal was collected, a supernatant was removed, and 100 μL of DMSO was added thereto to completely dissolve. The resultant solution was measured for an absorbance (550 nm).

PARP-1 = assay: Western blotting (1), anti-PARP-1 antibody, Jurkat cell; type: cell-based, human; settings: 10 μM
Procedure: In this example, the action mechanism for killing cells by Pro-IP6 was studied by Wester blotting using a Jurkat cell and various antibodies. Jurkat cells (1×10^5 cells/well, culture fluid: 500 μL) were seeded in a 24-well plate to be cultured overnight. Thereafter, DMSO (1%, Fujifilm Wako Pure Chemical Corporation), an aqueous solution (1%) of IP6 (final concentration: 10 μM, Sigma Aldrich), or a DMSO solution (1%) of Pro-IP6 (final concentration: 1 μM or 10 μM) was added thereto, followed by culturing for 8 hours or 24 hours. A supernatant was removed, the resultant was washed with 1× PBS (−) once, Laemmli sample buffer was added thereto, and the resultant was boiled at 100° C. for 1 hour to dissolve the cells. […] Detection was performed using ImmunoStar LD (Fujifilm Wako Pure Chemical Corporation).

Jurkat cell = assay: Cell viability test (flowcytometry, Annexin V-FITC / 7-AAD); type: cell-based, human; settings: 10 μM, 24 hours
Procedure: In this example, a cell viability test (flowcytometry) was performed using a Jurkat cell, that is, a human T cell-derived leukemia cell. Jurkat cells (1×10^5 cells/well, culture fluid: 500 μL) were seeded in a 24-well plate (Iwaki) to be cultured overnight. Thereafter, DMSO (1%, Fujifilm Wako Pure Chemical Corporation), an aqueous solution (1%) of IP6 (final concentration: 10 μM, Sigma Aldrich), or a DMSO solution (1%) of Pro-IP6 (myo-inositol hexaphosphate dodecakis(butyryloxymethyl) ester (4) synthesized in Example 1) (final concentration: 10 μM) was added thereto, and the resultant was cultured for 24 hours. A supernatant was removed, the resultant was washed with 1× PBS (−) once, 100 μL of 5× binding solution (PromoCell) was added thereto, and Annexin V-FITC (PromoCell) and 7-AAD (Becton, Dickinson and Company) were added thereto to perform a reaction for 15 minutes. Thereafter, measurement was performed using FACS Calibur (Becton, Dickinson and Company), and analysis was performed using FlowJo (Becton, Dickinson and Company).

virus protein Gag = biological target: T1, virus protein Gag (Human immunodeficiency virus type 1 group M subtype B, UniProt P12493); assay: Intracellular aggregation of virus protein Gag (fluorescence microscope); type: cell-based; settings: HeLa cells, 10 μM, 4 hours
T1 construct: aggregation of virus protein Gag or the MA region thereof; Venus; FLAG (C); expressed in transfected cells; host or cells: HeLa cells
Procedure: HeLa cells (0.5×10^5 cells/well, culture fluid: 300 μL) were seeded in a 8-well chamber slide (Thermo fisher scientific) to be cultured overnight. […] (Thermo fisher scientific) was used to introduce pUC or pEF-Gag(p17)cFLAG, pNL4-3/Gag-Venus, and the resultant was cultured for 10 hours. Thereafter, DMSO (1%, Fujifilm Wako Pure Chemical Corporation) or Pro-IP6 (final concentration: 10 μM) was added thereto, followed by culturing for another 4 hours. The thus obtained cells were fixed with 4% paraformaldehyde (Tokyo Chemical Industry Co., Ltd.), dyed with Hoechst 33342 (Thermo fisher scientific), and observed with a fluorescence microscope, BZ-X800 (Keyence).

CCCC(=O)OCOP(=O)(OCOC(=O)CCC)O[C@H]1[C@H](OP(=O)(OCOC(=O)CCC)OCOC(=O)CCC)[C@@H](OP(=O)(OCOC(=O)CCC)OCOC(=O)CCC)[C@H](OP(=O)(OCOC(=O)CCC)OCOC(=O)CCC)[C@@H](OP(=O)(OCOC(=O)CCC)OCOC(=O)CCC)[C@H]1OP(=O)(OCOC(=O)CCC)OCOC(=O)CCC [Pro-IP6, myo-inositol hexaphosphate dodecakis(butyryloxymethyl) ester]
incorporation into HeLa cell (IP6 methyl ester by LC/MS vs negative control) (HeLa cell): well incorporated
amount of IP6 methyl ester observed in cell relative to that of IP6 (HeLa cell; LC/MS): not less than 200 times
lowering of relative cell viability [1]: ≥ 25%
cleavage of PARP-1 (induction of apoptosis) (PARP-1): cleavage of PARP-1 and Caspase-3 was observed
induction of apoptosis (Annexin V-FITC / 7-AAD flow cytometry) (Jurkat cell): induction of apoptosis in a Jurkat cell, that is, human T cell-derived leukemia cell, was observed
aggregation of virus protein Gag or MA region in cell (virus protein Gag): aggregated

From patent publication US20210177722A1, “Phytic Acid Ester Derivative” (NATIONAL UNIVERSITY CORPORATION KUMAMOTO UNIVERSITY, priority 2018, published 2021)
